Reference: patent publication US20240174690A1, “ANNULATED 2-AMINO-3-CYANO THIOPHENES AND DERIVATIVES FOR THE TREATMENT OF CANCER” (BOEHRINGER INGELHEIM INTERNATIONAL GMBH, priority 2021, published 2024)
Read-outs that look alike come from different tables or passages of the source.

Assays:
MKN1 cells = assay: MKN1 CTG proliferation assay (120 h) (gastric cancer, wt amplified); format: cell-based; details: Homo sapiens
How it was run: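 MKN1 gastric cancer cells (200–500 per well, RPMI + 10% FCS) given a logarithmic compound dose series and incubated 120 h. Viability by CellTiter-Glo luminescence as percent of DMSO controls. IC50 by four-parameter non-linear regression.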

SK-CO-1 cells = assay: SK-CO-1 CTG proliferation assay (120 h) (CRC, G12V); format: cell-based; details: Homo sapiens; SK-CO-1 cells (CRC, G12V), CTG 120 h
How it was run: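 SK-CO-1 colorectal cells (KRAS G12V), 500 per well in EMEM + 10% FCS, dosed with compound the day after seeding and grown 120 h at 37 °C. Viability by CellTiter-Glo luminescence as percent of DMSO control; IC50 from four-parameter non-linear regression.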

CYP3A4 = CYP3A4 (Homo sapiens (Human), UniProt P08684); assay: Mechanism based inhibition of CYP3A4 assay (MBI 3A4); format: in vitro ADME; details: hydroxy-midazolam formation after 30 min vs 0 min preincubation, 25 uM, human liver microsomes
Sequence of CYP3A4 (P08684 whole entry): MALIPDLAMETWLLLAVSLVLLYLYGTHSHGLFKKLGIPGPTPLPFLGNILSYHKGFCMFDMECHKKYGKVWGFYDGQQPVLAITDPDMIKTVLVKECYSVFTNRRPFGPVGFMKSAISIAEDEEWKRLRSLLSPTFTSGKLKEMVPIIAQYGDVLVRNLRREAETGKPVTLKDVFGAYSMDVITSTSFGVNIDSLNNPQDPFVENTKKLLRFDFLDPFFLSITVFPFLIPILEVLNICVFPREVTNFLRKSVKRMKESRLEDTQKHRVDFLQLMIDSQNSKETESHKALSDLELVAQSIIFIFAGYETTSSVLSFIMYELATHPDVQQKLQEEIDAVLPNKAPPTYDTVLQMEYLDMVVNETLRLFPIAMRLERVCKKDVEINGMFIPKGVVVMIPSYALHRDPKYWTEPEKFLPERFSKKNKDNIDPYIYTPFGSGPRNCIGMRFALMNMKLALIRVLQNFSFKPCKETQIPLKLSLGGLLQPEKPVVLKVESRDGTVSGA
How it was run: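 Human CYP3A4 activity after 30 min vs 0 min preincubation with test compound; incubate then diluted 1:10 and midazolam added for a 15 min main incubation. Quenched with acetonitrile; hydroxy-midazolam quantified by LC/MS-MS and expressed as % of the 0 min preincubation formation.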

[1] = MKN-1, assay 3, CTG 120 h, read-out: MKN1 (assay 3) IC50

Row | IC50 (MKN1 cells; [1]) [nM] | IC50 (SK-CO-1 cells) [nM] | MBI 3A4 (CYP3A4) [%] | IC50 (MKN1 cells; MKN-1, assay 2, CTG 120 h, read-out: MKN1 (assay 2) IC50) [nM] | Structure (SMILES)
1 | 1730 | 418 |  |  | C[C@H](Oc1cc(Cl)nc(-c2onc3c2CCC[C@@]32CCCc3sc(N)c(C#N)c32)n1)[C@@H]1CCCN1C [I-1]
2 |  |  | 36 |  | C[C@H](Oc1nc(-c2onc3c2CCC[C@@]32CCCc3sc(N)c(C#N)c32)cc(N2CCNC3(CC3)C2)n1)[C@@H]1CCCN1C [I-2]
3 |  | 2090 | 51 |  | C[C@H](Oc1cc(N2CCNC3(CCC3)C2)nc(-c2onc3c2CCC[C@@]32CCCc3sc(N)c(C#N)c32)n1)[C@@H]1CCCN1C [I-3]
4 |  | 185 | 85 |  | C[C@H](Oc1cc(-n2ccnc2)nc(-c2onc3c2CCC[C@@]32CCCc3sc(N)c(C#N)c32)n1)[C@@H]1CCCN1C [I-20]
5 | 68 | 20 |  |  | C[C@H](Oc1cc([C@@H]2CCOC2)nc(-c2onc3c2CCC[C@@]32CCCc3sc(N)c(C#N)c32)n1)[C@@H]1CCCN1C [I-22]
6 |  | 139 | 57 |  | CO[C@@H]1C[C@@H]([C@H](C)Oc2cc(-c3ccn(C)n3)nc(-c3onc4c3CCC[C@@]43CCCc4sc(N)c(C#N)c43)n2)N(C)C1 [I-23]
7 |  | 67 | 73 |  | Cc1nc(-c2cc(O[C@@H](C)[C@@H]3CCCN3C)nc(-c3onc4c3CCC[C@@]43CCCc4sc(N)c(C#N)c43)n2)cs1 [I-24]
8 |  | 357 |  |  | C[C@H](Oc1cc(-c2ccc(N)nc2)nc(-c2onc3c2CCC[C@@]32CCCc3sc(N)c(C#N)c32)n1)[C@@H]1CCCN1C [I-25]
9 |  | 118 | 71 |  | C[C@H](Oc1cc(-c2ccn(CC(C)(C)O)n2)nc(-c2onc3c2CCC[C@@]32CCCc3sc(N)c(C#N)c32)n1)[C@@H]1CCCN1C [I-26]
10 |  | 381 |  |  | C[C@H](Oc1cc(-n2nccn2)nc(-c2onc3c2CCC[C@@]32CCCc3sc(N)c(C#N)c32)n1)[C@@H]1CCCN1C [I-29]
11 |  | 31 | 77 |  | C[C@H](Oc1cc(-c2ccn(C[C@@H](C)O)n2)nc(-c2onc3c2CCC[C@@]32CCCc3sc(N)c(C#N)c32)n1)[C@@H]1CCCN1C [I-30]
12 |  |  | 67 |  | C[C@H](O)Cn1ccc(-c2cc(O[C@@H](C)[C@@H]3CCCN3C)nc(-c3onc4c3CCC[C@@]43CCCc4sc(N)c(C#N)c43)n2)n1 [I-31]
13 |  | 111 | 41 |  | C[C@H](Oc1cc(-n2ccnn2)nc(-c2onc3c2CCC[C@@]32CCCc3sc(N)c(C#N)c32)n1)[C@@H]1CCCN1C [I-32]
14 |  | 181 | 73 |  | C[C@H](Oc1cc(-c2ccn3ncnc3c2)nc(-c2onc3c2CCC[C@@]32CCCc3sc(N)c(C#N)c32)n1)[C@@H]1CCCN1C [I-33]
15 |  | 1080 | 45 |  | C[C@H](Oc1cc(N2CCN(C)C3(COC3)C2)nc(-c2onc3c2CCC[C@@]32CCCc3sc(N)c(C#N)c32)n1)[C@@H]1C[C@@H](F)CN1C [I-37]
16 |  |  | 37 |  | C[C@H](Oc1nc(-c2onc3c2CCC[C@@]32CCCc3sc(N)c(C#N)c32)cc(N2CCN(C)C3(CC3)C2)n1)[C@@H]1CCCN1C [I-40]
17 |  | 2760 | 68 |  | C[C@H](Oc1cc(N2CCN(C)C3(CC3)C2)nc(-c2onc3c2CCC[C@@]32CCCc3sc(N)c(C#N)c32)n1)[C@@H]1CCCN1C [I-41]
18 |  | 892 | 64 |  | C[C@H](Oc1cc(N2C[C@H](C)N(C)[C@@H](C)C2)nc(-c2onc3c2CCC[C@@]32CCCc3sc(N)c(C#N)c32)n1)[C@@H]1CCCN1C [I-43]
19 |  | 1210 |  |  | C[C@H](Oc1cc(N2CCN(C)C3(CCC3)C2)nc(-c2onc3c2CCC[C@@]32CCCc3sc(N)c(C#N)c32)n1)[C@@H]1CCCN1C [I-44]
20 |  | 763 |  | 510 | C[C@H](Oc1cc(N2CCNC3(CC3)C2)nc(-c2onc3c2CCC[C@@]32CCCc3sc(N)c(C#N)c32)n1)[C@@H]1C[C@@H](F)CN1C [I-45]
21 |  | 8 |  |  | C[C@H](Oc1cc(-n2ccc(C(=O)N[C@@H]3CCOC3)n2)nc(-c2onc3c2CCC[C@@]32CCCc3sc(N)c(C#N)c32)n1)[C@@H]1CCCN1C [I-56]
22 |  | 1240 |  |  | C[C@H](Oc1cc(N2CC(N(C)C)C2)nc(-c2noc3c2CCC[C@@]32CCCc3sc(N)c(C#N)c32)n1)[C@@H]1CCCN1C [II-7]
23 |  | 692 |  |  | C[C@H](Oc1cc(N2CCN(CCO)CC2)nc(-c2noc3c2CCC[C@@]32CCCc3sc(N)c(C#N)c32)n1)[C@@H]1CCCN1C [II-8]
24 |  | 800 |  |  | C[C@H](Oc1cc(N2C[C@@H](N(C)C)[C@@H](F)C2)nc(-c2noc3c2CCC[C@@]32CCCc3sc(N)c(C#N)c32)n1)[C@@H]1CCCN1C [II-11]
25 |  | 896 | 70 |  | C[C@H](Oc1cc(N2CCN(C)C3(COC3)C2)nc(-c2noc3c2CCC[C@@]32CCCc3sc(N)c(C#N)c32)n1)[C@@H]1CCCN1C [II-13]

Row | IC50 (MKN1 cells; [1]) [nM] | IC50 (SK-CO-1 cells) [nM] | MBI 3A4 (CYP3A4) [%] | IC50 (MKN1 cells; MKN-1, assay 2, CTG 120 h, read-out: MKN1 (assay 2) IC50) [nM] | Structure (SMILES)
26 |  | 771 | 83 |  | C[C@H](Oc1cc(N2CC[C@H](N3CCCC3)C2)nc(-c2noc3c2CCC[C@@]32CCCc3sc(N)c(C#N)c32)n1)[C@@H]1CCCN1C [II-14]
27 |  | 1250 | 76 |  | C[C@H](Oc1cc(N2CC[C@H](N(C)C)C2)nc(-c2noc3c2CCC[C@@]32CCCc3sc(N)c(C#N)c32)n1)[C@@H]1C[C@@H](F)CN1C [II-15]
28 |  | 1870 |  |  | C[C@H]1CN(C)CCCN1c1cc(N2CC[C@H](N(C)C)C2)nc(-c2noc3c2CCC[C@@]32CCCc3sc(N)c(C#N)c32)n1 [II-16]
29 |  | 617 |  |  | C[C@@H]1CN(c2cc(O[C@@H](C)[C@@H]3C[C@@H](F)CN3C)nc(-c3noc4c3CCC[C@@]43CCCc4sc(N)c(C#N)c43)n2)CC2(CC2)N1 [II-17]
30 |  | 9250 |  |  | C[C@H](Oc1cc(-n2ccc(C(=O)O)n2)nc(-c2noc3c2CCC[C@@]32CCCc3sc(N)c(C#N)c32)n1)[C@@H]1CCCN1C [II-24]
31 |  | 3 | 77 |  | C[C@H](Oc1cc(-n2ccc(C(=O)NC3COC3)n2)nc(-c2noc3c2CCC[C@@]32CCCc3sc(N)c(C#N)c32)n1)[C@@H]1CCCN1C [II-25]
32 |  | 3 | 58 |  | C[C@H](Oc1cc(-n2ccc(C(=O)NC3(C)COC3)n2)nc(-c2noc3c2CCC[C@@]32CCCc3sc(N)c(C#N)c32)n1)[C@@H]1CCCN1C [II-26]
33 |  | 433 |  |  | C[C@H](Oc1cc(-c2cnn(C)n2)nc(-c2noc3c2CCC[C@@]32CCCc3sc(N)c(C#N)c32)n1)[C@@H]1C[C@@H](F)CN1C [II-28]
34 |  | 9070 |  |  | C[C@H]1CN(C)CCCN1c1cc(N2CCN(C)CC2)nc(-c2noc3c2CCC[C@@]32CCCc3sc(N)c(C#N)c32)n1 [II-30]
35 |  | 704 | 79 |  | C[C@H](Oc1cc(N2CCNC(C)(C)C2)nc(-c2noc3c2CCC[C@@]32CCCc3sc(N)c(C#N)c32)n1)[C@@H]1CCCN1C [II-32]
36 |  | 1050 |  |  | C[C@H](Oc1cc(N2C[C@H]3CN(C)C[C@H]3C2)nc(-c2noc3c2CCC[C@@]32CCCc3sc(N)c(C#N)c32)n1)[C@@H]1CCCN1C [II-33]
37 |  | 5730 |  |  | CN[C@H]1CCN(c2cc(O[C@@H](C)[C@@H]3CCCN3C)nc(-c3noc4c3CCC[C@@]43CCCc4sc(N)c(C#N)c43)n2)C1 [II-35]
38 |  | 1120 |  |  | C[C@@H]1CN(c2cc(O[C@@H](C)[C@@H]3CCCN3C)nc(-c3noc4c3CCC[C@@]43CCCc4sc(N)c(C#N)c43)n2)C[C@H](C)N1 [II-36]
39 |  | 562 | 81 |  | C[C@H](Oc1cc([C@@H]2CCN(C)C2)nc(-c2noc3c2CCC[C@@]32CCCc3sc(N)c(C#N)c32)n1)[C@@H]1CCCN1C [II-37]
40 |  | 174 |  |  | C[C@H](Oc1cc([C@H]2CCN(C)C2)nc(-c2noc3c2CCC[C@@]32CCCc3sc(N)c(C#N)c32)n1)[C@@H]1CCCN1C [II-38]
41 |  | 1240 |  |  | C[C@H](Oc1cc(N2CCN(C)CC2)nc(-c2noc3c2CCC[C@@]32CCCc3sc(N)c(C#N)c32)n1)[C@@H]1CCCN1[C@@H]1CCOC1 [II-39]
42 |  | 488 |  |  | C[C@H](Oc1cc(N2CCNC3(CCC3)C2)nc(-c2noc3c2CCC[C@@]32CCCc3sc(N)c(C#N)c32)n1)[C@@H]1CCCN1C [II-40]
43 |  | 910 |  |  | C[C@H](Oc1cc(N2CCNC3(CCCC3)C2)nc(-c2noc3c2CCC[C@@]32CCCc3sc(N)c(C#N)c32)n1)[C@@H]1CCCN1C [II-41]
44 |  | 38 | 63 |  | C[C@H](Oc1cc(-c2ccn([C@H]3CCCOC3)n2)nc(-c2noc3c2CCC[C@@]32CCCc3sc(N)c(C#N)c32)n1)[C@@H]1CCCN1C [II-42]
45 |  | 46 | 70 |  | C[C@H](Oc1cc(-c2ccn(C[C@@H]3CCCO3)n2)nc(-c2noc3c2CCC[C@@]32CCCc3sc(N)c(C#N)c32)n1)[C@@H]1CCCN1C [II-43]
46 |  | 193 | 71 |  | C[C@H](Oc1cc(C2CCCO2)nc(-c2noc3c2CCC[C@@]32CCCc3sc(N)c(C#N)c32)n1)[C@@H]1CCCN1C (stereo partly shown) [II-44]
47 |  | 655 | 91 |  | C[C@H](Oc1nc(-c2noc3c2CCC[C@@]32CCCc3sc(N)c(C#N)c32)cc(N2C[C@H](C)N[C@@H](C)C2)n1)[C@@H]1CCCN1C [II-46]
48 |  | 600 |  |  | C[C@H](Oc1cc(N2CC[C@@H](N(C)C)C2)nc(-c2noc3c2CCC[C@@]32CCCc3sc(N)c(C#N)c32)n1)[C@@H]1CCCN1C [II-47]
49 |  | 1070 | 84 |  | C[C@H](Oc1cc(N2CCC(N(C)C)CC2)nc(-c2noc3c2CCC[C@@]32CCCc3sc(N)c(C#N)c32)n1)[C@@H]1CCCN1C [II-48]
50 |  | 29 |  |  | C[C@H](Oc1cc(-n2ccsc2=O)nc(-c2noc3c2CCC[C@@]32CCCc3sc(N)c(C#N)c32)n1)[C@@H]1CCCN1C [II-135]
